Test results published in patent publication US20260130395A1, “Water Dispersible Botanical Compositions” (Aquila Black Limited, priority 2021, published 2026).

Test: Stability of cannabinoid entourage and Vitamin E components of the powder concentrate by LCMSMS
Type: physicochemical
Conditions: powder stored at 21-25° C.
Protocol: At each time period, 0.05 g of powder was dissolved in 10 ml-15 of ethanol, diluted to fall within the analytical range, and injected into the LCMSMS for analysis.

Row | SMILES | Stability of Plant-Derived Cannabinoid Compounds in Powder Concentrate (0 days) [mg/g powder] | Stability of Plant-Derived Cannabinoid Compounds in Powder Concentrate (1 days) [mg/g powder] | Stability of Plant-Derived Cannabinoid Compounds in Powder Concentrate (2 days) [mg/g powder] | Stability of Plant-Derived Cannabinoid Compounds in Powder Concentrate (3 days) [mg/g powder] | Stability of Plant-Derived Cannabinoid Compounds in Powder Concentrate (5 days) [mg/g powder] | Stability of Plant-Derived Cannabinoid Compounds in Powder Concentrate (8 days) [mg/g powder] | Stability of Plant-Derived Cannabinoid Compounds in Powder Concentrate (9 days) [mg/g powder] | Stability of Plant-Derived Cannabinoid Compounds in Powder Concentrate (10 days) [mg/g powder] | Stability of Plant-Derived Cannabinoid Compounds in Powder Concentrate (11 days) [mg/g powder] | Stability of Plant-Derived Cannabinoid Compounds in Powder Concentrate (12 days) [mg/g powder] | Stability of Plant-Derived Cannabinoid Compounds in Powder Concentrate (15 days) [mg/g powder] | Stability of Plant-Derived Cannabinoid Compounds in Powder Concentrate (16 days) [mg/g powder] | Stability of Plant-Derived Cannabinoid Compounds in Powder Concentrate (17 days) [mg/g powder] | Stability of Plant-Derived Cannabinoid Compounds in Powder Concentrate (18 days) [mg/g powder] | Stability of Plant-Derived Cannabinoid Compounds in Powder Concentrate (19 days) [mg/g powder] | Stability of Plant-Derived Cannabinoid Compounds in Powder Concentrate (22 days) [mg/g powder] | Stability of Plant-Derived Cannabinoid Compounds in Powder Concentrate (23 days) [mg/g powder] | Stability of Plant-Derived Cannabinoid Compounds in Powder Concentrate (24 days) [mg/g powder] | Stability of Plant-Derived Cannabinoid Compounds in Powder Concentrate (25 days) [mg/g powder] | Stability of Plant-Derived Cannabinoid Compounds in Powder Concentrate (26 days) [mg/g powder] | other results
1 | CCCCCc1cc(O)c(C/C=C(\C)CCC=C(C)C)c(O)c1 [CBG, cannabigerol] | 1.1 | 1.07 | 1.08 | 1.09 | 1.11 | 1.07 | 1.09 | 1.08 | 1.14 | 1.10 | 1.08 | 1.06 | 1.06 | 1.13 | 1.14 | 1.12 | 1.13 | 1.09 | 1.13 | 1.14 | Stability of Plant-Derived Cannabinoid Compounds in Powder Concentrate (29 days): 1.10 mg/g powder; Stability of Plant-Derived Cannabinoid Compounds in Powder Concentrate (30 days): 1.07 mg/g powder; Stability of Plant-Derived Cannabinoid Compounds in Powder Concentrate (60 days): 1.11 mg/g powder; Stability of Plant-Derived Cannabinoid Compounds in Powder Concentrate (90 days): 1.13 mg/g powder; Stability of Plant-Derived Cannabinoid Compounds in Powder Concentrate (120 days): 1.09 mg/g powder; Stability of Plant-Derived Cannabinoid Compounds in Powder Concentrate (150 days): 1.11 mg/g powder; Stability of Plant-Derived Cannabinoid Compounds in Powder Concentrate (180 days): 1.07 mg/g powder; Stability of Plant-Derived Cannabinoid Compounds in Powder Concentrate (210 days): 1.06 mg/g powder; Stability of Plant-Derived Cannabinoid Compounds in Powder Concentrate (240 days): 1.12 mg/g powder; Stability of Plant-Derived Cannabinoid Compounds in Powder Concentrate (270 days): 1.15 mg/g powder; Stability of Plant-Derived Cannabinoid Compounds in Powder Concentrate (300 days): 1.09 mg/g powder; Stability of Plant-Derived Cannabinoid Compounds in Powder Concentrate (330 days): 1.10 mg/g powder; Stability of Plant-Derived Cannabinoid Compounds in Powder Concentrate (360 days): 1.09 mg/g powder; Stability of Plant-Derived Cannabinoid Compounds in Powder Concentrate (390 days): 1.14 mg/g powder; Stability of Plant-Derived Cannabinoid Compounds in Powder Concentrate (420 days): 1.11 mg/g powder; Stability of Plant-Derived Cannabinoid Compounds in Powder Concentrate (450 days): 1.06 mg/g powder; Stability of Plant-Derived Cannabinoid Compounds in Powder Concentrate (480 days): 1.12 mg/g powder; Stability of Plant-Derived Cannabinoid Compounds in Powder Concentrate (510 days): 1.07 mg/g powder; Stability of Plant-Derived Cannabinoid Compounds in Powder Concentrate (540 days): 1.07 mg/g powder; Stability of Plant-Derived Cannabinoid Compounds in Powder Concentrate (570 days): 1.06 mg/g powder
2 | C=C(C)[C@@H]1CCC(C)=C[C@H]1c1c(O)cc(CCCCC)c(C(=O)O)c1O [CBDA, cannabidiolic acid] | 0.410 | 0.412 | 0.407 | 0.406 | 0.414 | 0.415 | 0.410 | 0.418 | 0.415 | 0.396 | 0.399 | 0.427 | 0.421 | 0.418 | 0.414 | 0.419 | 0.396 | 0.403 | 0.401 | 0.397 | Stability of Plant-Derived Cannabinoid Compounds in Powder Concentrate (29 days): 0.426 mg/g powder; Stability of Plant-Derived Cannabinoid Compounds in Powder Concentrate (30 days): 0.405 mg/g powder; Stability of Plant-Derived Cannabinoid Compounds in Powder Concentrate (60 days): 0.418 mg/g powder; Stability of Plant-Derived Cannabinoid Compounds in Powder Concentrate (90 days): 0.413 mg/g powder; Stability of Plant-Derived Cannabinoid Compounds in Powder Concentrate (120 days): 0.403 mg/g powder; Stability of Plant-Derived Cannabinoid Compounds in Powder Concentrate (150 days): 0.412 mg/g powder; Stability of Plant-Derived Cannabinoid Compounds in Powder Concentrate (180 days): 0.422 mg/g powder; Stability of Plant-Derived Cannabinoid Compounds in Powder Concentrate (210 days): 0.427 mg/g powder; Stability of Plant-Derived Cannabinoid Compounds in Powder Concentrate (240 days): 0.417 mg/g powder; Stability of Plant-Derived Cannabinoid Compounds in Powder Concentrate (270 days): 0.424 mg/g powder; Stability of Plant-Derived Cannabinoid Compounds in Powder Concentrate (300 days): 0.409 mg/g powder; Stability of Plant-Derived Cannabinoid Compounds in Powder Concentrate (330 days): 0.424 mg/g powder; Stability of Plant-Derived Cannabinoid Compounds in Powder Concentrate (360 days): 0.413 mg/g powder; Stability of Plant-Derived Cannabinoid Compounds in Powder Concentrate (390 days): 0.407 mg/g powder; Stability of Plant-Derived Cannabinoid Compounds in Powder Concentrate (420 days): 0.420 mg/g powder; Stability of Plant-Derived Cannabinoid Compounds in Powder Concentrate (450 days): 0.398 mg/g powder; Stability of Plant-Derived Cannabinoid Compounds in Powder Concentrate (480 days): 0.418 mg/g powder; Stability of Plant-Derived Cannabinoid Compounds in Powder Concentrate (510 days): 0.411 mg/g powder; Stability of Plant-Derived Cannabinoid Compounds in Powder Concentrate (540 days): 0.425 mg/g powder; Stability of Plant-Derived Cannabinoid Compounds in Powder Concentrate (570 days): 0.408 mg/g powder
